The values that follow come from patent US7528235B2, “Multi-functional antibodies” (The Regents of the Univarsity of California, priority 2003, dated 2009).

In the test the test system is antibody 2D12.5. Briefly: competitive immunoassay (ELISA) of metal-DOTA complexes against immobilized Y-DOTA. The class given is binding, murine. The note with it: 37° C.; DOTA analog [S]-2-(p-nitrobenzyl)-DOTA. An excerpt:
FIG. 13 is graphical display showing the relative binding of metal-DOTA complexes to antibody 2D12.5. A representative set of competitive binding curves obtained from ELISA experiments described in Example 3 below. Error bars (representing the standard error of the mean) are shown, but are generally smaller than the data points.
Elements plotted in the order Sc (open circle), Lu, Yb, Tm, Er, Ho, Y (open diamond), Dy, Tb, Gd, Eu, Sm, Nd, Pr, Ce, La. ΔΔG values relative to Y-DOTA, set at 0. Error bars represent standard error of the mean.
To determine the metal selectivity of the antibody 2D12.5, a competitive immunoassays was used to measure the binding constants of multiple metal-DOTA complexes relative to Y^3+-DOTA.
We examined the monoclonal antibody 2D12.5, initially developed to bind specifically to Y-DOTA for targeted radiotherapy (see, e.g., Goodwin et al., i Cancer Res. 54: 5937-5946 (1994)), in order to determine the scope of its activity. To assess the metal selectivity of antibody 2D12.5, a competitive immunoassay to measure the binding constants of various metal-DOTA complexes relative to the original Y^3+ complex was developed (FIG. 12). Briefly, 2D12.5 was incubated at 37° C. in the presence of immobilized Y-DOTA and a soluble metal-DOTA competitor. […] Binding was measured by standard methods known to those of skill in the art. […]

Structures are written as SMILES.

`O=C([O-])CN1CCN(CC(=O)[O-])CCN(CC(=O)[O-])C(Cc2ccc([N+](=O)[O-])cc2)CN(CC(=O)[O-])CC1.[Tb+3]` (stereo not shown) [Tb-DOTA]: the “binding strength relative to the original Y^3+ complex (in words)” value is on record as “strongest binders”.
